Test results reported in the kinase profiling compilation of Christmann-Franck et al. (2016).

What was measured:
Test in all cases: KINOMEscan competition binding
Conditions in all cases: compound 10.0 µM
ADCK3 (human) = ADCK3 (human) (UniProt Q8NI60)
AXL (human) = AXL (human) (UniProt P30530)
BMPR1A (human) = BMPR1A (human) (UniProt P36894)
BMPR1B (human) = BMPR1B (human) (UniProt O00238)
BRSK2 (human) = BRSK2 (human) (UniProt Q8IWQ3)
CDC2L2 (human) = CDC2L2 (human) (UniProt Q9UQ88)
CIT (human) = CIT (human) (UniProt O14578)
DAPK3 (human) = DAPK3 (human) (UniProt O43293)
EPHA3 (human) = EPHA3 (human) (UniProt P29320)
EPHA7 (human) = EPHA7 (human) (UniProt Q15375)
FGFR4 (human) = FGFR4 (human) (UniProt P22455)
FLT4 (human) = FLT4 (human) (UniProt P35916)
HIPK1 (human) = HIPK1 (human) (UniProt Q86Z02)
KDR (human) = KDR (human) (UniProt P35968)
MAP3K10 (human) = MAP3K10 (human) (UniProt Q02779)
MAP3K5 (human) = MAP3K5 (human) (UniProt Q99683)
MAP4K5 (human) = MAP4K5 (human) (UniProt Q9Y4K4)
MAPK12 (human) = MAPK12 (human) (UniProt P53778)
MAPK4 (human) = MAPK4 (human) (UniProt P31152)
MAPK7 (human) = MAPK7 (human) (UniProt Q13164)
MYLK3 (human) = MYLK3 (human) (UniProt Q32MK0)
PAK1 (human) = PAK1 (human) (UniProt Q13153)
PHKG2 (human) = PHKG2 (human) (UniProt P15735)
PIK3CA (human) = PIK3CA (human) (UniProt P42336)
PLK1 (human) = PLK1 (human) (UniProt P53350)
PLK2 (human) = PLK2 (human) (UniProt Q9NYY3)
PRKAA1 (human) = PRKAA1 (human) (UniProt Q13131)
PRKAA2 (human) = PRKAA2 (human) (UniProt P54646)
PTK6 (human) = PTK6 (human) (UniProt Q13882)
RET (human) = RET (human) (UniProt P07949)
STK11 (human) = STK11 (human) (UniProt Q15831)
TEC (human) = TEC (human) (UniProt P42680)
TNIK (human) = TNIK (human) (UniProt Q9UKE5)
ZAP70 (human) = ZAP70 (human) (UniProt P43403)
CLK1 (human) = CLK1 (human) (UniProt P49759)
PIK3CG (human) = PIK3CG (human) (UniProt P48736)
TIE1 (human) = TIE1 (human) (UniProt P35590)
CDK13 (human) = CDK13 (human) (UniProt Q14004)
CDK4 CCND3 (human) = CDK4 CCND3 (human) (UniProt P11802+P30281)
MAP2K5 (human) = MAP2K5 (human) (UniProt Q13163)

MAPK12 (human), sequence (P53778 whole entry, looked up): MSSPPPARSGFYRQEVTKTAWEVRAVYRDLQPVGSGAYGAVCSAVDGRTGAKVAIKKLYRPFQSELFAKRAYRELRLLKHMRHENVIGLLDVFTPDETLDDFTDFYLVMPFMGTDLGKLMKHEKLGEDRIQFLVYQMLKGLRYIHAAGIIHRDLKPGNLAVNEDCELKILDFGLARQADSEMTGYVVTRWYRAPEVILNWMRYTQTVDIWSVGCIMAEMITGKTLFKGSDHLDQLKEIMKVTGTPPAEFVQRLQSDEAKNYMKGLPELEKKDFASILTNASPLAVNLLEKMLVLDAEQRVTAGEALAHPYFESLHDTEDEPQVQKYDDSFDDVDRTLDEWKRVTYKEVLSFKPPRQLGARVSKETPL
MAPK4 (human), sequence (P31152 whole entry, looked up): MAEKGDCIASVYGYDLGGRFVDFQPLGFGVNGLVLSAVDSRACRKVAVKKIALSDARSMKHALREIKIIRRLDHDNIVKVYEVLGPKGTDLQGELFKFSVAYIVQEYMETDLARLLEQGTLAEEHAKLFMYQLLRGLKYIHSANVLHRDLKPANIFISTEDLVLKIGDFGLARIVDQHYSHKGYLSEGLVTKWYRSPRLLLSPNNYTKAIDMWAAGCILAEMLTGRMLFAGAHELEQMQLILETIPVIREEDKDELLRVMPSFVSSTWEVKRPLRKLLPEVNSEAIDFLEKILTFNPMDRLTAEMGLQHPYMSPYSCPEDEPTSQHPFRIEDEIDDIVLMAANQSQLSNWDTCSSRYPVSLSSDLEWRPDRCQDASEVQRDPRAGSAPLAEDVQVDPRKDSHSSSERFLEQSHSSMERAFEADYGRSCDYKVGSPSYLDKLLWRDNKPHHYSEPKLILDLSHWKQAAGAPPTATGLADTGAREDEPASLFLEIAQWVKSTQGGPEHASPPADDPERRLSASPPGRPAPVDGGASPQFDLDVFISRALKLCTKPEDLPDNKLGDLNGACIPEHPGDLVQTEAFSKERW
MAP3K10 (human), sequence (Q02779 whole entry, looked up): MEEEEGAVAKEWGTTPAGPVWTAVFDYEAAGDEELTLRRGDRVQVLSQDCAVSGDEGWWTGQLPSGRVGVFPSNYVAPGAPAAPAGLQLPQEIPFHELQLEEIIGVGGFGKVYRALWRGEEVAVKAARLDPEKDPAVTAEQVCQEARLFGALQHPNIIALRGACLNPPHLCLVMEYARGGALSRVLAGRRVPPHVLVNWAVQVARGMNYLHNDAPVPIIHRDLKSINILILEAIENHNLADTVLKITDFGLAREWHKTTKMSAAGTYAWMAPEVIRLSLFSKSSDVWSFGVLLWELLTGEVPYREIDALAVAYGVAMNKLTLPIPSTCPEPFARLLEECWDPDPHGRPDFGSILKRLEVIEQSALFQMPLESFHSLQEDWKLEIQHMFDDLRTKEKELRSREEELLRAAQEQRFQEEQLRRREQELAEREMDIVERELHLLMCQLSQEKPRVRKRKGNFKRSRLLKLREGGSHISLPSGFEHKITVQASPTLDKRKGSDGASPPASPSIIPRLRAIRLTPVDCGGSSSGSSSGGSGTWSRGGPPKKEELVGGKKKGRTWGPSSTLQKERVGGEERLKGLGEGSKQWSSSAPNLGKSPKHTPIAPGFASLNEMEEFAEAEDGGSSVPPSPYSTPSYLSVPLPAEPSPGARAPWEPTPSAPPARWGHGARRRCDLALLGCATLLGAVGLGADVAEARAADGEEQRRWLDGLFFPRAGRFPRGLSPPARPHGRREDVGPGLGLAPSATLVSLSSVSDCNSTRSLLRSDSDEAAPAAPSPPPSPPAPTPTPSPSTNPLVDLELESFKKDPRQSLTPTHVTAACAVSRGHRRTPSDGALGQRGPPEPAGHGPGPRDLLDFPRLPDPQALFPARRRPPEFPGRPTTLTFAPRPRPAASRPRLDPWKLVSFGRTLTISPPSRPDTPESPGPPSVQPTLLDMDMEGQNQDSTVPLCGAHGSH
BMPR1A (human), sequence (P36894 whole entry, looked up): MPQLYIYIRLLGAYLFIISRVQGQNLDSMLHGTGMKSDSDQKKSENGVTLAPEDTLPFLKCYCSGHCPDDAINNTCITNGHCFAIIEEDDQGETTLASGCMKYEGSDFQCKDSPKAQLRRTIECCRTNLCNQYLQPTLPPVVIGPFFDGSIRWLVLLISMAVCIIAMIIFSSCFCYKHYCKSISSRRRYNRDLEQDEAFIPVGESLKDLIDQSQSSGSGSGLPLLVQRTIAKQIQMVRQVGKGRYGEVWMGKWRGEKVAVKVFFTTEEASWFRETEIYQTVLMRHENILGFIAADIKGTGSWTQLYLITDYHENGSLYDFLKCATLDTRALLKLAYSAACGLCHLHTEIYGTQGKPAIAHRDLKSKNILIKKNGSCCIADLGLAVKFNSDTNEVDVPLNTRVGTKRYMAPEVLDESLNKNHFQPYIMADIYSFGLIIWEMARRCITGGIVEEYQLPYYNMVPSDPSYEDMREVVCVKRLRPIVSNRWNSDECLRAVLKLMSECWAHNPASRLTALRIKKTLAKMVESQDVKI
DAPK3 (human), sequence (O43293 whole entry, looked up): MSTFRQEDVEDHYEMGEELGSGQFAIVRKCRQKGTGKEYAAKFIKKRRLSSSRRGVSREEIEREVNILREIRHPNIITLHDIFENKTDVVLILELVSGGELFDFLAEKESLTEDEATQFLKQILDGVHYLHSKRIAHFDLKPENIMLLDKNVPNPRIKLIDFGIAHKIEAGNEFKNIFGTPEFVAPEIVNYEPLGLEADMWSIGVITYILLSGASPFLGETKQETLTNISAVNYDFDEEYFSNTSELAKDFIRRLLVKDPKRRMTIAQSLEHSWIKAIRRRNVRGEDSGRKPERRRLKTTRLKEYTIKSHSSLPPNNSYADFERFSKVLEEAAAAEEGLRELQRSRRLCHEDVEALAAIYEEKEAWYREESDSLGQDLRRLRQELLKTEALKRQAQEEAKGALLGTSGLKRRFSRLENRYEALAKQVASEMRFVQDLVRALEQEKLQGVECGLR
CLK1 (human), sequence (P49759 whole entry, looked up): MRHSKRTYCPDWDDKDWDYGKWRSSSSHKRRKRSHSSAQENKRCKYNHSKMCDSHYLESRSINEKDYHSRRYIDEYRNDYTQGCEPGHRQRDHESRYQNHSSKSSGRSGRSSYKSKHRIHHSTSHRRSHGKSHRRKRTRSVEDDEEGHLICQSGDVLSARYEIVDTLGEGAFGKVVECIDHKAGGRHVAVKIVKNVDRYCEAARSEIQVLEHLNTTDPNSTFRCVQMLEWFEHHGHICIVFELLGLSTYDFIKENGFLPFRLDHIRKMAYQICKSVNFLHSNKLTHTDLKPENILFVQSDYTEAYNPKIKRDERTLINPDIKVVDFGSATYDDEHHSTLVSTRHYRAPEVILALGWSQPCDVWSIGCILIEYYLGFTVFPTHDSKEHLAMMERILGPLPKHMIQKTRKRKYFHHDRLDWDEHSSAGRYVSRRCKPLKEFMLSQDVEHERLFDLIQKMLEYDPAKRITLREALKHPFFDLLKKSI
PTK6 (human), sequence (Q13882 whole entry, looked up): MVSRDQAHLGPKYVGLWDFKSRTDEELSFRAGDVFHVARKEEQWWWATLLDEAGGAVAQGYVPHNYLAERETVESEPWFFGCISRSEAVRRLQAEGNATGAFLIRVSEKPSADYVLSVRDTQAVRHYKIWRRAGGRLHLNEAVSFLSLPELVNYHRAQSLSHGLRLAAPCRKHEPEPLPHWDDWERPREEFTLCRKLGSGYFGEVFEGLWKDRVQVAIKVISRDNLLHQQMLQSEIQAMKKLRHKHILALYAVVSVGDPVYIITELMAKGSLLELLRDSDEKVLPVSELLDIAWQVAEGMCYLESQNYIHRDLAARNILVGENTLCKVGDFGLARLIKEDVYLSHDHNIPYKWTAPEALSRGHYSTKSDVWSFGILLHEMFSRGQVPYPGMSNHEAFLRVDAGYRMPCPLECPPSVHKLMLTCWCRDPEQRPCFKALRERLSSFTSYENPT
FGFR4 (human), sequence (P22455 whole entry, looked up): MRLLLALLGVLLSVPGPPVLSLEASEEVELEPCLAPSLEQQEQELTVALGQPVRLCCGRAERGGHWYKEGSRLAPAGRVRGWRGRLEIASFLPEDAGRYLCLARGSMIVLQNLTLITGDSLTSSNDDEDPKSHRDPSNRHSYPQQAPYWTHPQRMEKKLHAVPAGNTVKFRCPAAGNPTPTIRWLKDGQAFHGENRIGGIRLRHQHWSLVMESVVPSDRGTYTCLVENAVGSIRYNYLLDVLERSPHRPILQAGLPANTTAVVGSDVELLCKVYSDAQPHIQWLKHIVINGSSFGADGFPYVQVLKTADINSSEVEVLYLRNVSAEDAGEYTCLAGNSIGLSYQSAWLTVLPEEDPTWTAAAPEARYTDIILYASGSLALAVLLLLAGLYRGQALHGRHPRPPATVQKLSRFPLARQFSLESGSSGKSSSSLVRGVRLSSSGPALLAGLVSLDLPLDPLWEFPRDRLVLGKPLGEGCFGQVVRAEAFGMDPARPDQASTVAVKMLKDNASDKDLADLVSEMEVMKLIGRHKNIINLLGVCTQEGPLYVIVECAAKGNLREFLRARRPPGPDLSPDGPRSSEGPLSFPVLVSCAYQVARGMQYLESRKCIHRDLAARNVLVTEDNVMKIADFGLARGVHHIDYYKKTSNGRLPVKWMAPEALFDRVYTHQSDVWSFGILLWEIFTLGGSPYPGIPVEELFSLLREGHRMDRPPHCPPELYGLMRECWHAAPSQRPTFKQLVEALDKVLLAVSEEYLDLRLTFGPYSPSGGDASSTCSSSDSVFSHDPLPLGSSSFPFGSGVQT

| kinase still bound, per cent of control (ADCK3 (human)) [%] | kinase still bound, per cent of control (AXL (human)) [%] | kinase still bound, per cent of control (BMPR1A (human)) [%] | kinase still bound, per cent of control (BMPR1B (human)) [%] | kinase still bound, per cent of control (BRSK2 (human)) [%] | kinase still bound, per cent of control (CDC2L2 (human)) [%] | kinase still bound, per cent of control (CIT (human)) [%] | kinase still bound, per cent of control (DAPK3 (human)) [%] | kinase still bound, per cent of control (EPHA3 (human)) [%] | kinase still bound, per cent of control (EPHA7 (human)) [%] | kinase still bound, per cent of control (FGFR4 (human)) [%] | kinase still bound, per cent of control (FLT4 (human)) [%] | kinase still bound, per cent of control (HIPK1 (human)) [%] | kinase still bound, per cent of control (KDR (human)) [%] | kinase still bound, per cent of control (MAP3K10 (human)) [%] | kinase still bound, per cent of control (MAP3K5 (human)) [%] | kinase still bound, per cent of control (MAPK4 (human)) [%] | kinase still bound, per cent of control (MAPK7 (human)) [%] | kinase still bound, per cent of control (MYLK3 (human)) [%] | kinase still bound, per cent of control (PAK1 (human)) [%] | SMILES | also measured |
| --- | --- | --- | --- | --- | --- | --- | --- | --- | --- | --- | --- | --- | --- | --- | --- | --- | --- | --- | --- | --- | --- |
| 100 | 100 | 100 | 100 | 100 | 100 | 100 | 100 | 100 | 100 | 100 | 100 | 100 | 100 | 100 | 100 | 100 | 100 | 100 | 100 | CS(=O)(=O)N1CCN(Cc2cc3nc(-c4cccc5[nH]ncc45)nc(N4CCOCC4)c3s2)CC1 | kinase still bound, per cent of control (MAP4K5 (human)): 100%; kinase still bound, per cent of control (MAPK12 (human)): 100%; kinase still bound, per cent of control (PHKG2 (human)): 100%; kinase still bound, per cent of control (PIK3CA (human)): 0.15%; kinase still bound, per cent of control (PLK1 (human)): 100%; kinase still bound, per cent of control (PLK2 (human)): 100%; kinase still bound, per cent of control (PRKAA1 (human)): 100%; kinase still bound, per cent of control (PRKAA2 (human)): 100%; kinase still bound, per cent of control (PTK6 (human)): 100%; kinase still bound, per cent of control (RET (human)): 100%; kinase still bound, per cent of control (STK11 (human)): 100%; kinase still bound, per cent of control (TEC (human)): 100%; kinase still bound, per cent of control (TNIK (human)): 100%; kinase still bound, per cent of control (ZAP70 (human)): 100% |
| 100 | 100 | 100 | 100 | 100 | 26 | 100 | 100 | 100 | 100 | 0.75 | 100 | 100 | 100 | 100 | 100 | 100 | 4.1 | 100 | 100 | CCN(CC)CCCCNc1ncc2c(n1)N(C)C(=O)N(c1c(Cl)c(OC)cc(OC)c1Cl)C2 | kinase still bound, per cent of control (CLK1 (human)): 100%; kinase still bound, per cent of control (MAP4K5 (human)): 23%; kinase still bound, per cent of control (MAPK12 (human)): 100%; kinase still bound, per cent of control (PHKG2 (human)): 100%; kinase still bound, per cent of control (PIK3CA (human)): 100%; kinase still bound, per cent of control (PIK3CG (human)): 100%; kinase still bound, per cent of control (PLK1 (human)): 100%; kinase still bound, per cent of control (PLK2 (human)): 100%; kinase still bound, per cent of control (PRKAA1 (human)): 100%; kinase still bound, per cent of control (PRKAA2 (human)): 100%; kinase still bound, per cent of control (PTK6 (human)): 100%; kinase still bound, per cent of control (RET (human)): 100%; kinase still bound, per cent of control (STK11 (human)): 100%; kinase still bound, per cent of control (TEC (human)): 100%; kinase still bound, per cent of control (TIE1 (human)): 10%; kinase still bound, per cent of control (TNIK (human)): 100%; kinase still bound, per cent of control (ZAP70 (human)): 100% |
| 100 | 100 | 100 | 100 | 100 | 100 | 100 | 100 | 100 | 100 | 5.6 | 100 | 100 | 100 | 100 | 100 | 100 | 0 | 100 | 100 | COc1cc(N2CCN(C)CC2)ccc1Nc1ncc2c(n1)N(C)c1ccccc1C(=O)N2C | kinase still bound, per cent of control (CLK1 (human)): 100%; kinase still bound, per cent of control (MAP4K5 (human)): 100%; kinase still bound, per cent of control (MAPK12 (human)): 100%; kinase still bound, per cent of control (PHKG2 (human)): 29%; kinase still bound, per cent of control (PIK3CA (human)): 100%; kinase still bound, per cent of control (PIK3CG (human)): 31%; kinase still bound, per cent of control (PLK1 (human)): 9.8%; kinase still bound, per cent of control (PLK2 (human)): 100%; kinase still bound, per cent of control (PRKAA1 (human)): 100%; kinase still bound, per cent of control (PRKAA2 (human)): 100%; kinase still bound, per cent of control (PTK6 (human)): 7.6%; kinase still bound, per cent of control (RET (human)): 100%; kinase still bound, per cent of control (STK11 (human)): 100%; kinase still bound, per cent of control (TEC (human)): 100%; kinase still bound, per cent of control (TIE1 (human)): 100%; kinase still bound, per cent of control (TNIK (human)): 100%; kinase still bound, per cent of control (ZAP70 (human)): 100% |

| SMILES | kinase still bound, per cent of control (ADCK3 (human)) [%] | kinase still bound, per cent of control (AXL (human)) [%] | kinase still bound, per cent of control (BMPR1A (human)) [%] | kinase still bound, per cent of control (BMPR1B (human)) [%] | kinase still bound, per cent of control (BRSK2 (human)) [%] | kinase still bound, per cent of control (CDC2L2 (human)) [%] | kinase still bound, per cent of control (CIT (human)) [%] | kinase still bound, per cent of control (DAPK3 (human)) [%] | kinase still bound, per cent of control (EPHA3 (human)) [%] | kinase still bound, per cent of control (EPHA7 (human)) [%] | kinase still bound, per cent of control (FGFR4 (human)) [%] | kinase still bound, per cent of control (FLT4 (human)) [%] | kinase still bound, per cent of control (HIPK1 (human)) [%] | kinase still bound, per cent of control (KDR (human)) [%] | kinase still bound, per cent of control (MAP3K10 (human)) [%] | kinase still bound, per cent of control (MAP3K5 (human)) [%] | kinase still bound, per cent of control (MAPK4 (human)) [%] | kinase still bound, per cent of control (MAPK7 (human)) [%] | kinase still bound, per cent of control (MYLK3 (human)) [%] | kinase still bound, per cent of control (PAK1 (human)) [%] | also measured |
| --- | --- | --- | --- | --- | --- | --- | --- | --- | --- | --- | --- | --- | --- | --- | --- | --- | --- | --- | --- | --- | --- |
| C[C@@H](Oc1cc(-c2cnn(C3CCNCC3)c2)cnc1N)c1c(Cl)ccc(F)c1Cl | 53 | 5.3 | 0.15 | 61 | 65 | 0.35 | 62 | 94 | 11 | 0.3 | 98 | 100 | 78 | 78 | 79 | 100 | 84 | 0.1 | 100 | 95 | kinase still bound, per cent of control (CDK13 (human)): 24%; kinase still bound, per cent of control (CDK4 CCND3 (human)): 39%; kinase still bound, per cent of control (CLK1 (human)): 84%; kinase still bound, per cent of control (MAP2K5 (human)): 54%; kinase still bound, per cent of control (PHKG2 (human)): 32%; kinase still bound, per cent of control (PIK3CA (human)): 100%; kinase still bound, per cent of control (PIK3CG (human)): 100%; kinase still bound, per cent of control (PLK1 (human)): 83%; kinase still bound, per cent of control (PLK2 (human)): 73%; kinase still bound, per cent of control (PRKAA1 (human)): 8%; kinase still bound, per cent of control (PRKAA2 (human)): 17%; kinase still bound, per cent of control (PTK6 (human)): 56%; kinase still bound, per cent of control (STK11 (human)): 57%; kinase still bound, per cent of control (TEC (human)): 100%; kinase still bound, per cent of control (TNIK (human)): 51%; kinase still bound, per cent of control (ZAP70 (human)): 29% |
